In US20170334891A1, “ENHANCER OF ZESTE HOMOLOG 2 INHIBITORS” (GLAXOSMITHKLINE INTELLECTUAL PROPERTY (NO.2) LIMITED, priority 2014, published 2017):

Each compound was assayed against T1, EZH2 within the PRC2 complex (Homo sapiens, UniProt Q15910) (assay: EZH2 methyltransferase scintillation proximity assay (SPA)). Settings: Human PRC2 5 member complex (FLAG-EZH2, EED, SUZ12, RbAp48, AEBP2), 1 nM enzyme, biotinylated histone H3K27 peptide, 3H-SAM, 60 min at room temperature.
T1 construct: FLAG; made in house; host or cells: Sf9 cells
Type: biochemical
Procedure: Compounds contained herein were evaluated for their ability to inhibit the methyltransferase activity of EZH2 within the PRC2 complex. Human PRC2 complex was prepared by co-expressing each of the 5 member proteins (FLAG-EZH2, EED, SUZ12, RbAp48, AEBP2) in Sf9 cells followed by co-purification. Enzyme activity was measured in a scintillation proximity assay (SPA) where a tritiated methyl group is transferred from 3H-SAM to a lysine residue on a biotinylated, unmethylated peptide substrate derived from histone H3. The peptides were captured on streptavidin-coated SPA beads and the resulting signal was read on a ViewLux plate reader.
• 1. Prepare 10 mM stock of compounds from solid in 100% DMSO. • 2. Set up an 11-point serial dilution (1:4 dilution, top concentration 10 mM) in 100% DMSO for each test compound in a 384 well plate leaving columns 6 and 18 for DMSO controls. • 3. Dispense 10 nL of compound from the dilution plate into reaction plates (Corning, 384-well polystyrene NBS, Cat#3673).
Prepare the following solutions: • 1. 1× Base Buffer, 50 mM Tris-HCl, pH 8, 2 mM MgCl2: Per 1 L of base buffer, combine 1 M Tris-HCl, pH 8 (50 mL), 1 M MgCl2 (2 mL), and distilled water (948 mL). • 2. 1× Assay Buffer: Per 10 mL of 1× Assay Buffer, combine 1× Base Buffer (9.96 mL), 1 M DTT (40 uL), and 10% Tween-20 (1 uL) to provide a final concentration of 50 mM Tris-HCl, pH 8, 2 mM MgCl2, 4 mM DTT, 0.001% Tween-20. • 3. 2× Enzyme Solution: Per 10 mL of 2× Enzyme Solution, combine 1× Assay Buffer (9.99 mL) and 3.24 uM EZH2 5 member complex (6.17 uL) to provide a final enzyme concentration of 1 nM. • 4. SPA Bead Solution: Per 1 mL of SPA Bead Solution, combine Streptavidin coated SPA beads (PerkinElmer, Cat# RPNQ0261, 40 mg) and 1× Assay Buffer (1 mL) to provide a working concentration of 40 mg/mL. • 5. 2× Substrate Solution: Per 10 mL of 2× Substrate Solution, combine 40 mg/mL SPA Bead Solution (375 uL), 1 mM biotinylated histone H3K27 peptide (200 uL), 12.5 uM 3H-SAM (240 uL; 1 mCi/mL), 1 mM cold SAM (57 uL), and 1× Assay Buffer (9.13 mL) to provide a final concentration of 0.75 mg/mL SPA Bead Solution, 10 uM biotinylated histone H3K27 peptide, 0.15 uM 3H-SAM (˜12 uCi/mL 3H-SAM), and 2.85 uM cold SAM. • 6. 2.67× Quench Solution: Per 10 mL of 2.67× Quench Solution, combine 1× Assay Buffer (9.73 mL) and 10 mM cold SAM (267 uL) to provide a final concentration of 100 uM cold SAM.
• 1. Stamp 10 nL/well of 1000× Compound to test wells (as noted above). • 2. Stamp 10 nL/well of 100% DMSO to columns 6 & 18 (high and low controls, respectively).
• 1. Dispense 5 uL/well of 1× Assay Buffer to column 18 (low control reactions). • 2. Dispense 5 uL/well of 2× Substrate Solution to columns 1-24 (note: substrate solution should be mixed to ensure homogeneous bead suspension before dispensing into matrix reservoir). • 3. Dispense 5 uL/well of 2× Enzyme Solution to columns 1-17, 19-24. • 4. Incubate the reaction for 60 min at room temperature.
• 1. Dispense 6 uL/well of the 2.67× Quench Solution to columns 1-24. • 2. Seal assay plates and spin for ˜1 min at 500 rpm. • 3. Dark adapt plates in the ViewLux instrument for 15-60 min.
• 1. Read the assay plates on the Viewlux Plate Reader utilizing the 613 nm emission filter or clear filter (300 s exposure). Reagent addition can be done manually or with automated liquid handler.
Percent inhibition was calculated relative to the DMSO control for each compound concentration and the resulting values were fit using standard IC50 fitting parameters within the ABASE data fitting software package.
The IC50 values of <10 nM indicate that the activity of compound was approaching the limit of detection in the assay. Repeating the assay run(s) may result in somewhat different IC50 values.

T1 sequence (Q15910 whole entry): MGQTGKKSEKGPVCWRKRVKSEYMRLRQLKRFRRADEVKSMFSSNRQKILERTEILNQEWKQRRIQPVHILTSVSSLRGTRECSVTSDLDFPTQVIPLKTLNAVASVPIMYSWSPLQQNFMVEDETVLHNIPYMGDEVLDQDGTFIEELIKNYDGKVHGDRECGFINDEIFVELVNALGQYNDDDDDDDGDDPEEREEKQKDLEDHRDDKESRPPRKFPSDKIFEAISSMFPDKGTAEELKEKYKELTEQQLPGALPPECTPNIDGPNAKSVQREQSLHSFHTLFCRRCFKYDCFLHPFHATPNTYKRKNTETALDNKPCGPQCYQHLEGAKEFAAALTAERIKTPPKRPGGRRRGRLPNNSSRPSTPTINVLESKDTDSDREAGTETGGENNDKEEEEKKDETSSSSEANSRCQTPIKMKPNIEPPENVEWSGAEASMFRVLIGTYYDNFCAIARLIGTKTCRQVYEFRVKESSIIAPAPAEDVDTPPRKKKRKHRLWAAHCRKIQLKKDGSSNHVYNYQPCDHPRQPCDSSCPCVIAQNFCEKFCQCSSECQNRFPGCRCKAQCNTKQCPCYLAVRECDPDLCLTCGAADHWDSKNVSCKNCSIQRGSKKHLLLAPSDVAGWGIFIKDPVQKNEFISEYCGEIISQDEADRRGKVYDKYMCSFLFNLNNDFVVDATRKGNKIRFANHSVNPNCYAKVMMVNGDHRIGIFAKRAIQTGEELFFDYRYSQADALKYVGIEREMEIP
T1 sequence (O75530 whole entry partner): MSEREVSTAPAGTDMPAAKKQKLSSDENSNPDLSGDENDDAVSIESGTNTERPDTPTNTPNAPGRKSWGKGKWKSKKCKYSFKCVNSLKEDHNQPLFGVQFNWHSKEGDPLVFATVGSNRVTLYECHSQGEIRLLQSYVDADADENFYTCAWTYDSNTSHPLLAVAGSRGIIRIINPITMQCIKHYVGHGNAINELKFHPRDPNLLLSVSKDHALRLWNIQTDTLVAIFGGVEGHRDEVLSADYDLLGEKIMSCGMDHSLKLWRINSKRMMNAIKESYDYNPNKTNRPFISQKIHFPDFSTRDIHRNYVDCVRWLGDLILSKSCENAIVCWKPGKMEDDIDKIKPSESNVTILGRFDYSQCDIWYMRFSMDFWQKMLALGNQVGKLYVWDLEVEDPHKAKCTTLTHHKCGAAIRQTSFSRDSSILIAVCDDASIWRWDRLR
T1 sequence (Q15022 whole entry partner): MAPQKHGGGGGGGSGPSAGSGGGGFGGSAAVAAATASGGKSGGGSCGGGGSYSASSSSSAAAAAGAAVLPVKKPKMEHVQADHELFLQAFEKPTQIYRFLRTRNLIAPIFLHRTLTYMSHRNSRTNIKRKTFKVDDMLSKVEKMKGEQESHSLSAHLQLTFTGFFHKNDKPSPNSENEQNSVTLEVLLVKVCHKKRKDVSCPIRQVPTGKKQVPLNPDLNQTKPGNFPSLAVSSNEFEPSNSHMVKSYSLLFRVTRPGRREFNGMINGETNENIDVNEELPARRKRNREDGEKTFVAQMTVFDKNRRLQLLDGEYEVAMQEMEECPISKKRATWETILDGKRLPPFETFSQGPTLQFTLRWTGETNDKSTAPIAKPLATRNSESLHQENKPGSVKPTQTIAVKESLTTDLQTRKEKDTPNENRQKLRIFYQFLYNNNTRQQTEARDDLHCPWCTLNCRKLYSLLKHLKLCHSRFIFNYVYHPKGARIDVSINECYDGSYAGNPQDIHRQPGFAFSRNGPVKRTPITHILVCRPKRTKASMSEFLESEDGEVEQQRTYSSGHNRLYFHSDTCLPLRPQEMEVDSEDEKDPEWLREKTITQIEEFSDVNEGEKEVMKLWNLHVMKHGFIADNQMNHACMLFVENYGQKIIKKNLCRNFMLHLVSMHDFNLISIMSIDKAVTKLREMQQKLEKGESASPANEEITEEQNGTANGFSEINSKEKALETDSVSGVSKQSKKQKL
T1 sequence (Q09028 whole entry partner): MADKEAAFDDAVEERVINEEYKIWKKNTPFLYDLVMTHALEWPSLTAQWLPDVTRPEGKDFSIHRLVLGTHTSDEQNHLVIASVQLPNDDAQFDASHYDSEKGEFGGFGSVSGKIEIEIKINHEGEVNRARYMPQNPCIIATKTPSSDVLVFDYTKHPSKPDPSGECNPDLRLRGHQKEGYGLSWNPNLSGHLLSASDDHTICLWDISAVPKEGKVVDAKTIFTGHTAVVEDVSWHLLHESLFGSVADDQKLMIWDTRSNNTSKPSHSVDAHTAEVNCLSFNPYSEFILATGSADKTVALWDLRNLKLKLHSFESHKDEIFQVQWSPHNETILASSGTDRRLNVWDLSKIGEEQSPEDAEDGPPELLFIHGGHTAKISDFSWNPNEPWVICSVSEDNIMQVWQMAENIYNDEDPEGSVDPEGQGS
T1 sequence (Q6ZN18 whole entry partner): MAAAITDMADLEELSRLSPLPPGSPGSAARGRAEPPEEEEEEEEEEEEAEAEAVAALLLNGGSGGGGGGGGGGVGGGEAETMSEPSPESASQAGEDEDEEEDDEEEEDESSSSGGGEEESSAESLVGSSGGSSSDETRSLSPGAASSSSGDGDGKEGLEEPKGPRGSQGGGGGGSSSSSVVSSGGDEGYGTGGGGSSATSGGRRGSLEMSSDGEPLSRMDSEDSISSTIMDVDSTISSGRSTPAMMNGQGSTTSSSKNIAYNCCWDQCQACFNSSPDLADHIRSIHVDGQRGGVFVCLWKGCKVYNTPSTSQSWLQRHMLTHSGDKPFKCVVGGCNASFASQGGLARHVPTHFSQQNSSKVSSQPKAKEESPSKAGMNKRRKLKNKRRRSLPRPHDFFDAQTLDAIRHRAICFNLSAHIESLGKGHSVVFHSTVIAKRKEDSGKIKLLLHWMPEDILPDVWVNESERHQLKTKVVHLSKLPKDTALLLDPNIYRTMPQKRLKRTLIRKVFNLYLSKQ

First: CCC(c1scc(C(=O)NCc2c(C)cc(C)[nH]c2=O)c1C)C1CCN(CC(C)(C)F)CC1 (racemic) [Example 6, N-((4,6-Dimethyl-2-oxo-1,2-dihydropyridin-3-yl)methyl)-5-(1-(1-(2-fluoro-2-methylpropyl)piperidin-4-yl)propyl)-4-methylthiophene-3-carboxamide]
Second: CC[C@@H](c1scc(C(=O)NCc2c(C)cc(C)[nH]c2=O)c1C)C1CCN(CC(C)(F)F)CC1 [Example 4, (R)-5-(1-(1-(2,2-Difluoropropyl)piperidin-4-yl)propyl)-N-((4,6-dimethyl-2-oxo-1,2-dihydropyridin-3-yl)methyl)-4-methylthiophene-3-carboxamide]
The IC50 of the first is 2.5-fold higher: 50 nM for the first, 20 nM for the second.

Going from `CCC(c1scc(C(=O)NCc2c(C)cc(C)[nH]c2=O)c1C)C1CCN(CC(F)(F)F)CC1` (racemic) [Example 11, N-((4,6-Dimethyl-2-oxo-1,2-dihydropyridin-3-yl)methyl)-4-methyl-5-(1-(1-(2,2,2-trifluoroethyl)piperidin-4-yl)propyl)thiophene-3-carboxamide] to `CC[C@H](c1scc(C(=O)NCc2c(C)cc(C)[nH]c2=O)c1C)C1CCN(CC(C)(F)F)CC1` [Example 5, (S)-5-(1-(1-(2,2-Difluoropropyl)piperidin-4-yl)propyl)-N-((4,6-dimethyl-2-oxo-1,2-dihydropyridin-3-yl)methyl)-4-methylthiophene-3-carboxamide], the IC50 rises from 20 nM to 501 nM (25-fold).

First: CCC(c1scc(C(=O)NCc2c(C)cc(C)[nH]c2=O)c1C)C1CCN(CC(F)F)CC1 (racemic) [Example 14, 5-(1-(1-(2,2-Difluoroethyl)piperidin-4-yl)propyl)-N-((4,6-dimethyl-2-oxo-1,2-dihydropyridin-3-yl)methyl)-4-methylthiophene-3-carboxamide]
Second: CCC(c1scc(C(=O)NCc2c(C)cc(C)[nH]c2=O)c1C)C1CCN(/C(=N\C#N)NC)CC1 (centres unmarked) [Example 19, 5-(1-(1-(N′-Cyano-N-methylcarbamimidoyl)piperidin-4-yl)propyl)-N-((4,6-dimethyl-2-oxo-1,2-dihydropyridin-3-yl)methyl)-4-methylthiophene-3-carboxamide]
The IC50 of the first is 7.9-fold lower: 40 nM for the first, 316 nM for the second.

Compared with `CCC(=C1CCN(CC(C)(F)F)CC1)c1scc(C(=O)NCc2c(C)cc(C)[nH]c2=O)c1C` [Example 1, 5-(1-(1-(2,2-Difluoropropyl)piperidin-4-ylidene)propyl)-N-((4,6-dimethyl-2-oxo-1,2-dihydropyridin-3-yl)methyl)-4-methylthiophene-3-carboxamide], `CCC(=C1CCN(CC(C)(C)F)CC1)c1scc(C(=O)NCc2c(C)cc(C)[nH]c2=O)c1C` [Example 2, N-((4,6-Dimethyl-2-oxo-1,2-dihydropyridin-3-yl)methyl)-5-(1-(1-(2-fluoro-2-methylpropyl)piperidin-4-ylidene)propyl)-4-methylthiophene-3-carboxamide] is lower in IC50: 16 nM for the first, ≤ 10 nM for the second.

`CCC(=C1CCN(CC(F)(F)F)CC1)c1scc(C(=O)NCc2c(C)cc(C)[nH]c2=O)c1C` [Example 3, N-((4,6-Dimethyl-2-oxo-1,2-dihydropyridin-3-yl)methyl)-4-methyl-5-(1-(1-(2,2,2-trifluoroethyl)piperidin-4-ylidene)propyl)thiophene-3-carboxamide] and `CCC(=C1CCN(CC(F)F)CC1)c1scc(C(=O)NCc2c(C)cc(C)[nH]c2=O)c1C` [Example 20, 5-(1-(1-(2,2-Difluoroethyl)piperidin-4-ylidene)propyl)-N-((4,6-dimethyl-2-oxo-1,2-dihydropyridin-3-yl)methyl)-4-methylthiophene-3-carboxamide] cannot be ordered by IC50: ≤ 10 nM for the first, ≤ 10 nM for the second.

`CCC(=C1CCN(N(C)C)CC1)c1scc(C(=O)NCc2c(C)cc(C)[nH]c2=O)c1C` [Example 7, N-((4,6-Dimethyl-2-oxo-1,2-dihydropyridin-3-yl)methyl)-5-(1-(1-(dimethylamino)piperidin-4-ylidene)propyl)-4-methylthiophene-3-carboxamide] and `CCC(=C1CCN(O)CC1)c1scc(C(=O)NCc2c(C)cc(C)[nH]c2=O)c1C` [Example 8, N-((4,6-Dimethyl-2-oxo-1,2-dihydropyridin-3-yl)methyl)-5-(1-(1-hydroxypiperidin-4-ylidene)propyl)-4-methylthiophene-3-carboxamide] are within 1.5-fold of each other in IC50: 20 nM for the first, 16 nM for the second.

Going from `CCC(c1sc2c(c1C)C(=O)N(Cc1c(C)cc(C)[nH]c1=O)CC2)N1CCC(N(C)C)CC1` (centres unmarked) [Example 9] to `CCC(c1sc2c(c1C)C(=O)N(Cc1c(C)cc(C)[nH]c1=O)CC2)C1CCN(CC(C)F)CC1` (centres unmarked) [Example 17, 5-((4,6-Dimethyl-2-oxo-1,2-dihydropyridin-3-yl)methyl)-2-(1-(1-(2-fluoropropyl)piperidin-4-yl)propyl)-3-methyl-6,7-dihydrothieno[3,2-c]pyridin-4(5H)-one], the IC50 rises from 50 nM to 100 nM (2-fold). The first is the more potent here.

`CCC(=C1CCC(O)CC1)c1scc(C(=O)NCc2c(C)cc(C)[nH]c2=O)c1C` (centres unmarked) [Example 10, N-((4,6-Dimethyl-2-oxo-1,2-dihydropyridin-3-yl)methyl)-5-(1-(4-hydroxycyclohexylidene)propyl)-4-methylthiophene-3-carboxamide] and `CCC(=C1CCN(/C(=N/C#N)NC)CC1)c1scc(C(=O)NCc2c(C)cc(C)[nH]c2=O)c1C` [Example 15, 5-(1-(1-(N′-Cyano-N-methylcarbamimidoyl)piperidin-4-ylidene)propyl)-N-((4,6-dimethyl-2-oxo-1,2-dihydropyridin-3-yl)methyl)-4-methylthiophene-3-carboxamide] cannot be ordered by IC50: ≤ 10 nM for the first, ≤ 10 nM for the second.

Going from `CCC(=C1CCN(Cc2ncco2)CC1)c1scc(C(=O)NCc2c(C)cc(C)[nH]c2=O)c1C` [Example 12, N-((4,6-Dimethyl-2-oxo-1,2-dihydropyridin-3-yl)methyl)-4-methyl-5-(1-(1-(oxazol-2-ylmethyl)piperidin-4-ylidene)propyl)thiophene-3-carboxamide] to `CCC(=C1CCN(c2ncccn2)CC1)c1scc(C(=O)NCc2c(C)cc(C)[nH]c2=O)c1C` [Example 13, N-((4,6-Dimethyl-2-oxo-1,2-dihydropyridin-3-yl)methyl)-4-methyl-5-(1-(1-(pyrimidin-2-yl)piperidin-4-ylidene)propyl)thiophene-3-carboxamide], the IC50 rises from ≤ 10 nM to 13 nM.

First: CCC(c1sc2c(c1C)C(=O)N(Cc1c(C)cc(C)[nH]c1=O)CC2)C1CCN(CC(C)(F)F)CC1 (centres unmarked) [Example 16, 2-(1-(1-(2,2-Difluoropropyl)piperidin-4-yl)propyl)-5-((4,6-dimethyl-2-oxo-1,2-dihydropyridin-3-yl)methyl)-3-methyl-6,7-dihydrothieno[3,2-c]pyridin-4(5H)-one]
Second: CCC(c1sc2c(c1C)C(=O)N(Cc1c(C)cc(C)[nH]c1=O)CC2)C1CCN(/C(=N\C#N)NC)CC1 (centres unmarked) [Example 18, N′-Cyano-4-(1-(5-((4,6-dimethyl-2-oxo-1,2-dihydropyridin-3-yl)methyl)-3-methyl-4-oxo-4,5,6,7-tetrahydrothieno[3,2-c]pyridin-2-yl)propyl)-N-methylpiperidine-1-carboximidamide]
The IC50 of the first is higher: 100 nM for the first, ≤ 10 nM for the second. The second is the more potent here.
